Measured values from paper PMC5986738, “Thiazole Amides, A Novel Class of Algaecides against Freshwater Harmful Algae” (Scientific Reports, 2018).
Converted amounts (≈) assume the structure as drawn. One block for each molecule: values may come before it.

What was measured:
[1] = test system: dinoflagellates and raphidophytes; parameters: method as in doi:10.1016/j.tetlet.2003.08.115, PMID 17988095; settings: cited from earlier work
S. obliqnus = experiment: Algicidal activity (growth inhibition, microplate, absorbance 650 nm) against S. obliqnus; type: cell-based; settings: for IC50: 96 h, 96-hour IC50, mean ± SD, read-out: IC50 value S. obliqnus
Experimental: (§1) According to the method established by Schrader et al.[42], algicidal activity of alkaloid (1) and its amide analogues (7–32), as well as their hydrochloric salts (7S–27S), was evaluated against three typical […] algae, S. obliqnus, M. aeruginosa, and C. Pyrenoidosa at different concentrations. After three algae species were inoculated, the variation of algae density over 7 days were recorded continuously. […] The wavelength at 650 nm was determined as ideal incident wavelength for the measurement of algae density. Three […] algae S. obliqnus, M. aeruginosa, and C. pyrenoidosa were offered by Freshwater algae culture collection of the institute of Hydrobiology (FACHB-collection). Each culture for three species was maintained separately in continuous, steady-state growth microplates, which were placed in a growth chamber held at 28 ± 1 °C and illuminated continuously under fluorescent lights at a photon flux density of […]. Absorbance values of each wells were measured by a Packard model Spectra Count microplate photometer.
(§2) Alkaloid (1) and its analogues (7–32), as well as their hydrochloric salts (7S–27S), were dissolved separately in DMSO to provide stock solution concentrations. Initially, each stock solution was aseptically pipetted into the bottom of separate wells (20 μL per well) in a 96-well microplate and the final test concentrations for each sample were 0, 0.78, 1.56, 3.12, 6.25, 12.5, and 25 μg/mL. Wells of control samples contained only unialgal culture. The solution of CuSO4 and Diuron at the same concentration were chose as the reference sample. Each experiment was performed at least three times. Through measuring the area values under the individual growth curves, the inhibitory rate (%) for the individual tested concentration was calculated according to the following equation (1):1 Ii=(Ac−Ai)/[…]×100% • Ii: inhibitory rate of biomass growth by toxicant concentration i (%) • Ac: average area under the growth curve by control sample • Ai: average area under the growth curve by test concentration i
(§3) Mean values of 96-hour IC50 were determined for each group of plates, and standard deviation were calculated and reported as the mean ± SD.
(§4) The IC50 values of all compounds against three freshwater algae species were calculated using SPSS v19.0, and the algicidal activities of alkaloid (1) and its amide analogues (7–32), as well as the corresponding hydrochloric salts (7S–27S) are listed in Table 1 and 2, respectively.

M. aeruginosa = experiment: Algicidal activity (growth inhibition, microplate, absorbance 650 nm) against M. aeruginosa; type: cell-based; settings: for growth inhibitory ratio: 3.13 μg/mL; for IC50: Microcystis aeruginosa, 96-hour IC50, mean ± SD, read-out: IC50 value M. aeruginosa
Experimental: as §1, §2, §3, §4
Currently, M. aeruginosa appears to be the most harmful algae existing in the freshwater bodies in the developing countries. To investigate growth inhibitory potential of this class of thiazole amides on M. aeruginosa, thiazole amide (10) and its hydrochloric acid salt (10S) were subject to further survey for the optimal inhibition time and concentration (Figs 3 and 4). […] The variation of growth inhibitory ratios of compounds (10) and (10S) against M. aeruginosa at the lowest complete inhibition concentration is illustrated in Fig. 4. As observed, for administration of thiazole amide (10), the growth inhibitory ratios after 96 and 120 hours increase gradually to 79% and 92%, respectively. Under the same experimental conditions, growth inhibitory ratios for the salt (10S) are 82% and 88%, respectively.

C. pyrenoidosa = experiment: Algicidal activity (growth inhibition, microplate, absorbance 650 nm) against C. pyrenoidosa; type: cell-based, Chlorella pyrenoidosa; settings: Auxenochlorella pyrenoidosa; 96-hour IC50, mean ± SD; read-out: IC50 value C. pyrenoidosa
Experimental: as §1, §2, §3, §4

Brassica campestris = experiment: Herbicidal activity against terrestrial plant B. campestris; type: in vivo; settings: n.a.: no activity
Experimental: (§5) Toxicity of this class of thiazole amides towards non-target organisms, such as higher plants and fishes, was evaluated preliminarily using compound (10) as a representative sample. Herbicidal activity of compound (10) against two terrestrial plants, Brassica campestris and Echinochloa crusgalli, and two aquatic plants, Ceratophyllum demersum L and Hydrilla verticillata, was evaluated at a concentration of 500 mg/L using a previously reported method. In addition, toxicity of compound (10) toward fish Barchydanio rerio var was also tested at the concentrations of 200 mg/L and 100 mg/L, respectively.

Echinochloa crusgalli = experiment: Herbicidal activity against terrestrial plant E. crusgalli; type: in vivo; settings: n.a.: no activity
Experimental: as §5

Ceratophyllum demersum L = experiment: Herbicidal activity against aquatic plant C. demersum L; type: in vivo; settings: n.a.: no activity
Experimental: as §5

Hydrilla verticillata = experiment: Herbicidal activity against aquatic plant H. verticillata; type: in vivo; settings: n.a.: no activity
Experimental: as §5

Barchydanio rerio var = experiment: Toxicity toward fish; type: in vivo; settings: for Survival ratio in 7 days: fish
Experimental: as §5

Microcystis aeruginosa = test system: Microcystis aeruginosa; parameters: method as in PMID 16468755, PMID 16378379; settings: cited from earlier work
[2] = parameters: method as in PMID 16468755, PMID 16378379; settings: Synechococcus obliqnus; cited from earlier work
Kirchneriella contorta = test system: Kirchneriella contorta; parameters: method as in PMID 16468755, PMID 16378379; settings: cited from earlier work

- melting point: 135 to 137 °C
Compound: Cc1cccc(NC(=O)c2csc([C@H](C)N)n2)c1 [compound 16]
- IC50 (S. obliqnus): 2.86 ± 0.14 µg/mL (≈ 10.9 µM)
- IC50 (M. aeruginosa): 24.2 ± 3.12 µg/mL (≈ 92.4 µM)
- IC50 (C. pyrenoidosa): 7.18 ± 0.05 µg/mL (≈ 27.5 µM)

- melting point: 82 to 84 °C
Compound: COc1ccccc1NC(=O)c1csc([C@H](C)N)n1 [compound 22]
- IC50 (S. obliqnus): < 1 µg/mL
- IC50 (M. aeruginosa): 3.12 ± 0.56 µg/mL (≈ 11.2 µM)
- IC50 (C. pyrenoidosa): 2.19 ± 0.71 µg/mL (≈ 7.9 µM)

- melting point: 139 to 141 °C
Compound: CC(=O)c1ccc(NC(=O)c2csc([C@H](C)N)n2)cc1 [compound 27]
- IC50 (S. obliqnus): 4.73 ± 0.54 µg/mL (≈ 16.3 µM)
- IC50 (M. aeruginosa): 2.33 ± 0.32 µg/mL (≈ 8.05 µM)
- IC50 (C. pyrenoidosa): 2.84 ± 0.23 µg/mL (≈ 9.81 µM)

- melting point: 64 to 67 °C
Compound: C[C@H](N)c1nc(C(=O)NCc2ccccc2)cs1 [compound 32]
- IC50 (S. obliqnus): 100.2 ± 0.34 µg/mL (≈ 383 µM)
- IC50 (M. aeruginosa): 9.48 ± 1.08 µg/mL (≈ 36.3 µM)
- IC50 (C. pyrenoidosa): 4.16 ± 0.88 µg/mL (≈ 15.9 µM)

More lines, now with the values behind:

Compound: CC(=O)c1nc(C(=O)NCCc2c[nH]c3ccccc23)cs1 [bacillamide A]
- antibiotic activity (in words) [1]: potent antibiotic activity

Compound: C[C@H](N)c1nc(C(=O)Nc2ccc(Br)cc2)cs1 [compound 10]
- algicidal activity, times higher than CuSO4 and Diuron (S. obliqnus; S. obliqnus, from IC50 values): more than 10 times
- growth inhibitory ratio (M. aeruginosa; after 96 hours): 79%
- growth inhibitory ratio (M. aeruginosa; after 120 hours): 92%
- IC50 (M. aeruginosa): 1.51 ± 0.11 µg/mL (≈ 4.63 µM)
- IC50 (C. pyrenoidosa): 1.52 ± 0.05 µg/mL (≈ 4.66 µM)
- Herbicidal activity (500 mg/L) B. campestris (Brassica campestris): none-toxic
- Herbicidal activity (500 mg/L) E. crusalli (Echinochloa crusgalli): none-toxic
- Herbicidal activity (500 mg/L) C. demersum L. (Ceratophyllum demersum L): none-toxic
- Herbicidal activity (500 mg/L) H. verticillata (Hydrilla verticillata): none-toxic
- toxicity toward fish (in words) (Barchydanio rerio var; 100 and 200 mg/L): safe
- Survival ratio in 7 days (Barchydanio rerio var; dosage 100 mg/L): 100%
- Survival ratio in 7 days (Barchydanio rerio var; dosage 200 mg/L): 100%

Compound: CCCCNC(=O)c1csc([C@H](C)N)n1 [compound 30]
- IC50 (S. obliqnus): 5.23 ± 0.36 µg/mL (≈ 23 µM)
- IC50 (M. aeruginosa): 5.47 ± 0.41 µg/mL (≈ 24.1 µM)
- IC50 (C. pyrenoidosa): 4.65 ± 0.25 µg/mL (≈ 20.5 µM)
- melting point: 109 to 111 °C

Compound: C[n+]1ccc2c(c1)[nH]c1ccc(Cl)cc12 [nostocarboline]
- IC50 (Microcystis aeruginosa): 2.1 µM
- IC50 [2]: 5.8 µM
- IC50 (Kirchneriella contorta): 29.1 µM
